Measured values taken from PMC1933457, “Nitroimidazole Action in Entamoeba histolytica: A Central Role for Thioredoxin Reductase” (PLoS Biology, 2007).

Experiments:
recEh Trx = target: T1, recEh Trx (Entamoeba histolytica, UniProt C4LYR0); assay: intact-protein LC-ESI-QTOF-MS after expression with drug; type: cell-based; conditions: covalent; reduced metabolite; drug present during expression in E. coli
T1 construct: gene EHI_004490; C-terminal His6 tag, Met1 removed, one disulfide, 12,322 Da; pET17b, E. coli BL21(DE3), Ni-NTA
T1 sequence (C4LYR0 2-103): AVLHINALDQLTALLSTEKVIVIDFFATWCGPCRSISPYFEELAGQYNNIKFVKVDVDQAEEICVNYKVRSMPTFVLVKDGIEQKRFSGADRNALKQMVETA

recEh TrxR = target: T2, recEh TrxR (Entamoeba histolytica, UniProt C4LW95); assay: as above; type: cell-based; conditions: covalent; reduced metabolite; drug present during expression in E. coli
T2 construct: gene EHI_155440; C-terminal His6 tag, pET17b, E. coli BL21(DE3), Ni-NTA; C-terminal native peptide 292-314
T2 sequence (C4LW95 1-314): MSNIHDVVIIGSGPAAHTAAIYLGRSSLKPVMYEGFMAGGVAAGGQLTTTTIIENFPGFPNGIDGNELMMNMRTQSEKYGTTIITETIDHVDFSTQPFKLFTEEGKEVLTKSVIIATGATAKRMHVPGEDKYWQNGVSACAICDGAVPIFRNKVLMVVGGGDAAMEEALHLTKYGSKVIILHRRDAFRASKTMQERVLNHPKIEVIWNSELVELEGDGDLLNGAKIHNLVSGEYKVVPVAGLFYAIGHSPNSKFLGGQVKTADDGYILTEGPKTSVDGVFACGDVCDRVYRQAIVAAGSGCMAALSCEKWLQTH

tinidazole [compound 2]
mass increment (recEh Trx): 217 Da
mass increment (recEh TrxR): 217 Da
